# Results taken from ChEMBL document CHEMBL4813957, “Antitubercular properties of thiazolidin-4-ones - A review” (Eur J Med Chem, 2021).
# Columns and labels:
# [1] = tested on: Mycobacterium tuberculosis; test: Antimycobacterial activity against Mycobacterium bovis BCG; type: functional, organism-based; settings: variant bovis BCG
# [2] = tested on: Mycobacterium tuberculosis; test: Antimycobacterial activity Mycobacterium bovis BCG measured up to 2 weeks; type: functional; settings: variant bovis BCG, 336 h, time weeks <=2
# [3] = tested on: Mycobacterium tuberculosis; test: Antimycobacterial activity against Mycobacterium africanum measured up to 2 weeks; type: functional; settings: variant africanum, 336 h, time weeks <=2
# [4] = tested on: Mycobacterium tuberculosis; test: Antimycobacterial activity against Mycobacterium bovis BCG assessed as inhibition of bacteria at 30 ug/ml by nitrate reductase assay; type: functional; settings: variant bovis BCG
structure (smiles),measurement,setting,value
O=C(O)CN1C(=O)/C(=C/c2ccc(Cl)cc2)SC1=S,IC50,[1],7.4 µg/mL
O=C(O)CCCCCC1NC(=O)CS1 (centres undefined),MIC,[2],1.3 µM
same,MIC,[3],0.2 µM
Cc1nc(-c2cnccn2)sc1C(=O)NN1C(=O)CSC1c1ccccc1 (centres undefined),inhibition at 30 µg/mL,[4],62%
